{"source": "patent US20100034832A1", "about": "“METHODS FOR MANIPULATING STEM CELLS” (THE GENERAL HOSPITAL CORPORATION, priority 2006, published 2010)", "key": {"[1]": {"tested_on": "immature HSC fraction of the BM", "conditions": "200 mg/kg CTX intraperitoneally, day 4", "protocol": "In the CIX injury model, either sterile PBS or CTX at final concentration of 200 mg/kg mouse weight was injected intraperitoneally. At day 4 after injection, mice were euthanized and BM was obtained from femurs and tibiae of each mouse (n=5 per group).\nApoptosis was measured by AnnexinV and 7AAD staining as previously described Cheng, T. et al. Nat. Med. 6, 1235-1240 (2000)."}, "PB leucocyte count": {"tested_on": "PB leucocyte count", "assay": "5-fluorouracil (5FU) BM injury model, PB counts", "type": "in vivo, mouse", "conditions": "single 150 mg/kg 5FU intraperitoneally", "description": "Similar results were obtained when mice were subjected to BM injury using 5-fluorouracil (5FU) (data not shown). In the 5FU injury model, 150 mg/kg mouse weight 5FU was injected intraperitoneally at day 0 PB was obtained through tail vein bleeding for analysis weekly starting day 0 (n=10 per group).\nNext, we examined the role of P2Y14 in long-term hematopoietic recovery from BM injury. The mice were subjected to a single injection of 5FU and followed the peripheral blood (PB) leucocyte counts as well as PB granulocyte, B cell and T cell content by flow cytometry.\nMed. 6, 1235-1240 (2000)."}}, "note": "Where two headings read alike, the source gives them in different places."}
{"smiles": "O=P1(N(CCCl)CCCl)NCCCO1", "note": "(stereo not shown) [CTX, cyclophosphamide]", "values": [{"measurement": "immature HSC fraction of the BM (% LKS+, % CD34lo/-LKS+)", "setting": "[1]; P2Y14-/- mice", "result": "loss of enrichment for immature HSC fraction"}, {"measurement": "apoptosis in the immature HSC fraction", "setting": "[1]; P2Y14-/- mice, AnnexinV and 7AAD", "result": "increased apoptosis"}, {"measurement": "immature HSC fraction of the BM (% LKS+, % CD34lo/-LKS+)", "setting": "[1]; wildtype mice", "result": "enrichment of immature HSC fraction"}]}
{"smiles": "O=c1[nH]cc(F)c(=O)[nH]1", "note": "[5FU, 5-fluorouracil]", "values": [{"measurement": "persistence of greater than normal granulocyte (Gr-1+) count rebound", "setting": "PB leucocyte count; P2Y14-/- mice", "result": "up to 9 weeks"}, {"measurement": "nadir of total PB leucocyte count", "setting": "PB leucocyte count; both -/- and +/+ mice", "result": 7, "unit": "days"}, {"measurement": "peak of rebound leucocytosis", "setting": "PB leucocyte count; both -/- and +/+ mice", "result": 14, "unit": "days"}, {"measurement": "return to baseline leucocyte count", "setting": "PB leucocyte count; both -/- and +/+ mice", "result": "3-4 weeks post-injection"}]}
